Assay results reported in patent US6613762B2, “Gambogic acid, analogs and derivatives as activators of caspases and inducers of apoptosis” (Cytovia, Inc., priority 1999, dated 2003).

What was measured:
[1] = system: poly(ADP)ribose polymerase (PARP) cleavage, Jurkat cells; test: PARP cleavage western blot, Jurkat cells; type: cell-based, human; details: 2.5 μM, 2 h (FIG. 5A)
Protocol: Cleavage of the enzyme poly(ADP)ribose polymerase (PARP) by caspase-3 and related proteases is considered to be one of the molecular hallmarks of caspase-mediated apoptosis. Therefore, the ability of gambogic acid to induce PARP cleavage in four different human tumor cell lines (Jurkat cells, HL-60 cells, T47D cells and PC3 cells) was determined.
Cells were cultured in complete growth medium containing 10% FBS and treated with gambogic acid at concentrations of 2.5 μM or 5 μM for 2 to 4 h. Control cultures were treated with a drug vehicle (DMSO), or the well-characterized apoptosis inducer, staurosporine. At the end of the apoptosis induction period, the cells were harvested, washed once with PBS, quick-frozen on dry ice, and stored at −80° C. The cells were then lysed in a standard immunoblotting lysis buffer and samples of the lysates were electrophoresed on 4% to 20% gradient polyacrylamide gels. The proteins in the gels were then transferred to PVDF membranes and probed with a commercially-available rabbit polyclonal antibody to PARP.

[2] = system: human prostate cancer cell line DU-145; test: Inhibition of cell proliferation (GI50) and cell death (LC50), DU-145; type: cell-based; details: DU-145, 48 h; read-out: GI50 (dose for 50% inhibition of cell proliferation)
Protocol: (§1) T47D, ZR-75-1, PC-3, human prostate cancer cell line DU-145, human non-small cell lung cancer cell line A-549, human small cell lung cancer cell line SHP-77, HL-60 and MRC-5 cells were grown and harvested as in Example 90. […] The samples were mixed by agitation and incubated at 37° C. for 2-4 h in a 5% CO2-95% humidity incubator. […] This determines the possible background absorbance of the test compounds. No absorbance for gambogic acid or its analogs or derivatives was found at 490 nm. After the 2-4 h incubation, the samples were read for absorbance as above (ATest).
(§2) Baseline for GI50 (dose for 50% inhibition of cell proliferation) and LC50 (dose for 50% cell death) of initial cell numbers was determined by adding an aliquot of 90 μl of cells or 90 μl of media, respectively, to wells of a 96-well microtiter plate containing 10 μl of a 10% DMSO in RPMI-1640 media solution. […] The samples were mixed by agitation and incubated at 37° C. for 2-4 h in a 5% CO2-95% humidity incubator. Absorbance was read as above, (AT=0) defining absorbance for initial cell number used as baseline in GI50 determinations and (Amin) defining absorbance for media alone used as baseline in LC50 determinations.
(§3) GI50 (dose for 50% inhibition of cell proliferation)
(§4) LC50 (dose for 50% cell death)
(§5) 50=100×[(ATest−Amin)/(AT=0−Amin)]

[3] = system: KB cell line; details: reported by Lin et al., Magn. Reson. Chem. 31:340-347 (1993); cited from earlier work
[4] = system: HeLa cells; details: reported by Asano et al., Phytochemistry 41:815-820 (1996); cited from earlier work
[5] = system: T47D cells; test: Morphological change of T47D cells (phase contrast); type: cell-based, human; details: 2.5 μM
Protocol: In addition, apoptotic adherent cells in culture lose their ability to remain attached to the culture dish. The ability of gambogic acid to trigger these morphological changes in T47D cells was investigated.
60 mm culture dishes were seeded with 750,000 T47D cells and the cultures were incubated under normal growth conditions (complete medium with 10% FBS) for 24 h. The cells were then treated with 2.5 μM of gambogic acid and further incubated under normal growth conditions for 2 or 6 h. Morphological changes were documented by photographing the cells under phase contrast illumination.

[6] = system: caspase activity, PC-3 cells; test: Caspase induction and its inhibition by caspase inhibitor (Example 97), PC-3; type: cell-based, human; design: key to Inhibition of caspase activity by Inhibitor: The caspase activity detected was inhibited by the caspase inhibitor (+)
Protocol: (§6) T47D, ZR-75, PC3, SHP-77 and A-549 cells were maintained and harvested as described in Example 90. Cells were added to 96-well plates as described in Example 90. The cells were treated with 10 μM gambogic acid, in the presence and in the absence of 10 μM caspase inhibitor cbz-Val-Asp-fmk (Cytovia, Inc.; WO99/18781). The plate was incubated up to 24 h at 37° C in a 5% CO2-95% humidity incubator. Caspase activity was determined by addition of a fluorogenic substrate as described in Example 90.
(§7) Gambogic acid induced caspase activity in a ratio of greater than 2.5 (+) above untreated cell levels in all the tested cancer cell lines (Table IV). The caspase activity detected was inhibited by the caspase inhibitor (+), confirming that the fluorescent signal was due to caspase activity.

[7] = system: human small cell lung cancer cell line SHP-77; test: Inhibition of cell proliferation (GI50) and cell death (LC50), SHP-77; type: cell-based; details: SHP-77, 48 h
Protocol: as §1, §2, §3, §4, §5

[8] = system: PC-3 cells; test: Inhibition of cell proliferation (GI50) and cell death (LC50), PC-3; type: cell-based; details: PC-3, 48 h; read-out: GI50 (dose for 50% inhibition of cell proliferation)
Protocol: as §1, §2, §3, §4, §5

[9] = system: caspase activity, ZR-75 cells; test: Caspase induction and its inhibition by caspase inhibitor (Example 97), ZR-75; type: cell-based, human; design: key to Inhibition of caspase activity by Inhibitor: The caspase activity detected was inhibited by the caspase inhibitor (+)
Protocol: as §6, §7

[10] = system: Jurkat T leukemia cells; test: Apoptotic morphology in Jurkat cells; type: cell-based
Protocol: Jurkat T leukemia cells were grown in RPMI 1640 media (Life Technologies, Inc.)+10% FCS (Sigma Chemical Company) in a 5% CO2-95% humidity incubator at 37° C., and maintained at a cell density between 4 and 8×10^5 cells/ml. Cells were harvested at 200× g and resuspended at 1-2×10^6 cells/ml into RPMI 1640 media+10% FCS, and 3 ml of the cells was dispensed in each of three wells of a 6-well plate. One of the wells was treated with 10 μM caspase inhibitor cbz-Val-Asp-fink (Cytovia, Inc.; WO99/18781) and the plate was incubated at 37° C. in a 5% CO2-95% humidity incubator for 1 h prior to addition of gambogic acid. The wells with and without the caspase inhibitor were treated with 10 μM gambogic acid. The third well was treated with solvent (control cells). The plate was incubated at 37° C. in a 5% CO2-95% humidity incubator.
At 30 min. after addition of gambogic acid an aliquot of cells from each well was taken into the capillary slides and observed under a phase-contrast microscope.

What does the source list for `CC(C)=CCC[C@]1(C)C=Cc2c(O)c3c(c(CC=C(C)C)c2O1)O[C@]12C(=C[C@@H]4C[C@H]1C(C)(C)O[C@@]2(C/C=C(/C)C(=O)O)C4=O)C3=O` [Example 1, Gambogic Acid]?
PARP cleavage [1]: almost complete PARP cleavage; GI50 [2]: 500 nM; Cytotoxicity against KB cell line [3]: cytotoxic; Cytotoxicity to HeLa cells [4]: cytotoxic; Morphological change of T47D cells ([5]; 2 h (FIG. 1B)): many of the cells have taken on a rounded, phase-bright morphology; Morphological change of T47D cells ([5]; 6 h (FIG. 1C)): most of the cells in the culture are rounded up and are beginning to detach from the dish; Inhibition of caspase activity by Inhibitor ([6]; PC-3, 10 μM gambogic acid with 10 μM caspase inhibitor cbz-Val-Asp-fmk): +; Caspase activity ([6]; PC-3, 10 μM gambogic acid, up to 24 h): + (Gambogic acid induced caspase activity in a ratio of greater than 2.5 (+) above untreated cell levels); GI50 ([7]; read-out: GI50 (dose for 50% inhibition of cell proliferation)): 500 nM; CC50 ([7]; read-out: LC50 (dose for 50% cell death)): 500 nM; GI50 [8]: 500 nM; Inhibition of caspase activity by Inhibitor ([9]; ZR-75, 10 μM gambogic acid with 10 μM caspase inhibitor cbz-Val-Asp-fmk): +; Caspase activity ([9]; ZR-75, 10 μM gambogic acid, up to 24 h): + (Gambogic acid induced caspase activity in a ratio of greater than 2.5 (+) above untreated cell levels); Cell morphology of Jurkat cells in presence of caspase inhibitor ([10]; 10 μM gambogic acid, 30 min, with 10 μM caspase inhibitor cbz-Val-Asp-fink (FIG. 3C)): prevented the morphological changes; Cell morphology of Jurkat cells ([10]; 10 μM, 30 min (FIG. 3B)): blebbing and cellular fragmentation
